Source: publication PMC8348019

Test: head-to-tail lactamisation of linear tetramer (amino acid/peptoid hybrids) with HATU (1.5 equiv), DIPEA (8 equiv); dropwise addition of linear precursor to HATU solution
Settings: the molecule shown is the open-chain precursor; 12-membered ring; DMF; 5.0 mM; 21.0 °C; 30.0 h; 10 steps

SMILES	ring closure, overall yield [%]
CCCC[C@H](NC(=O)[C@H]1CCCN1C(=O)[C@@H](N)Cc1ccccc1)C(=O)N[C@@H](Cc1c[nH]c2ccccc12)C(=O)O [H-Phe-D-Pro-Nle-Trp-OH]	38
C=CCN(CC(=O)N[C@@H](Cc1ccccc1)C(=O)O)C(=O)[C@H]1CCCN1C(=O)CNC1CCCCC1 [H-(N-cyclohexyl)Gly-D-Pro-(N-allyl)Gly-Phe-OH]	50
CCCC[C@H](NC(=O)[C@H]1CCCN1C(=O)[C@@H](N)[C@@H](C)CC)C(=O)N[C@@H](Cc1c[nH]c2ccccc12)C(=O)O [H-Ile-D-Pro-Nle-Trp-OH]	22
CCCC[C@H](NC(=O)[C@H]1CCCN1C(=O)[C@@H](N)CC(C)C)C(=O)N[C@@H](Cc1c[nH]c2ccccc12)C(=O)O [H-Leu-D-Pro-Nle-Trp-OH]	36
CC[C@H](C)[C@H](N)C(=O)N1CCC[C@@H]1C(=O)N[C@@H](COC(C)(C)C)C(=O)N[C@@H](Cc1ccccc1)C(=O)O [H-Ile-D-Pro-Ser(tBu)-Phe-OH]	46
CCCC[C@H](NC(=O)[C@H]1CCCN1C(=O)[C@@H](N)CC(C)C)C(=O)N[C@@H](Cc1ccccc1)C(=O)O [H-Leu-D-Pro-Nle-Phe-OH]	56
